In one experiment the test system is gastric mucosa. The experiment in a line: In-vivo gastric healing, macroscopic impairment of the gastric mucosa. Also on record: species or system Sprague-Dawley rats; key: 0: Normal mucosa.; +: Small superficial hemorrhagic striae.; ++: Short and broad superficial hemorrhagic striae.; +++: Long and broad superficial hemorrhagic striae.; ++++: Perforations. Particulars: oral, dextran derivative and dextran T40 50 μg/kg, prostaglandin E2 10 μg/kg. How it is done: The animals employed are 12-week-old male Sprague-Dawley rats weighing from 200 to 250 g. Three batches of animals are used, with each consisting of 4 animals:
the first batch is treated with a dextran derivative of the general formula DMCaBbSuc in which a=0.75, b=0.25 and c=0.15, at the rate of 50 μg/kg,
the second batch serves as the control, with the animals being treated with a native dextran T40 (Pharmacia Fine Chemical; weight average molecular mass Mw: 37 500 g/mol; Mw/Mn: 1.7, with Mn representing the number average mass), at the rate of 50 μg/kg,
This batch therefore corresponds to a positive control.
The dextran derivative, the native dextran and the prostaglandin E2 are dissolved in physiological saline and administered orally to the animals.
The animals are sacrificed at different stages of healing, namely on D2, D4, D7 and D14, with the healing process being considered on days from the date on which the gastric irritation is induced. The gastric mucosa is recovered with a view to carrying out two studies:
quantification of the impairment of the gastric mucosa,
Table V represents a compilation of the results of the macroscopic study of the inflammatory reaction in the gastric mucosa, with the study being effected in accordance with the following scale: […]

The next experiment relates to right eye. The experiment in a line: In-vivo ocular healing after sodium hydroxide burn, histological studies. Also on record: species or system New Zealand white rabbits. Particulars: 100 μl three times daily; FGF-2 0.1 ng and/or dextran derivative 50 μg/ml.
Another experiment deals with complement system. Kind of experiment: In-vivo anticomplementary action, hemolytic CH50 assay on rat serum. Set-up: species or system Sprague-Dawley rats. Particulars: injection with Sephadex G25 20 μg and 50 μg of test substance. The text has this: The anticomplementary action is studied by means of a hemolytic or CH50 assay, in accordance with a protocol in which the serum of the rats, withdrawn at different time intervals, is activated by sheep erythrocytes which are sensitized by rabbit antibodies directed against sheep red blood cells (EA). By definition, one CH50 unit corresponds to the concentration of complement proteins (contained in one milliliter of serum) which is capable of inducing the hemolysis of 50% of 2×10^7 activated EAs in a reaction medium where the volume, the temperature and the reaction time are kept constant. The number of hemolytic sites per cell is calculated.

Protocol for right eye: 20 New Zealand white rabbits (10 males and 10 females) are used, with the rabbits being 1 year old and weighing from 2.5 to 3 kg; a 5.5 mm filter soaked in a 1N solution of sodium hydroxide was placed for 60 seconds on the right eye of these rabbits, which were then divided up into 4 groups of 5 animals each:
the first group is treated three times daily with 100 μl of a solution containing 0.1 ng of FGF-2 (Fibroblast Growth Factor-2);
the second group is treated three times daily with 100 μl of an isotonic solution containing 50 μg of a dextran derivative/ml of the general formula DMCaBbSuc in which a=0.75, b=0.31 and c=0.34;
the third group is treated three times daily with 100 μl of a solution containing 0.1 ng of FGF-2 and 50 μg of the above-mentioned dextran derivative/ml;
the fourth group (control group) is treated three times daily with 100 μl of a PBS buffer solution.
The speed of ocular healing in the four groups of animals is compared by means of histological studies carried out on days D1, D2, D4, D6 and D8.

`CCCCC[C@H](O)/C=C/[C@H]1[C@H](O)CC(=O)[C@@H]1C/C=C\CCCC(=O)O` [Prostaglandin E2, prostaglandin E2]: the “Impairment of the gastric mucosa” value in the experiment on gastric mucosa (D2) is “++”; in the experiment with gastric mucosa (D4) it was “+”; with gastric mucosa (D7) it was “+”; with gastric mucosa (D14) it was 0.

Consider FGF-2: Fibroblast Growth Factor-2, for which the “Duration of ocular healing (mean for each group of animals)” value with right eye is listed as 5 days.

native dextran: the “Inhibition of the activation of the complement (CH50)” value in the experiment with complement system is “did not have any effect”.

These data come from patent US7101863B2, “Pharmaceutical compositions with wound healing or anti-complementary activity comprising a dextran derivative” (Biodex, priority 2000, dated 2006).
